The values below are quoted from earlier work in patent US20070259951A1, “Compounds, Compositions and Methods” (SMITHKLINE BEECHAM CORPORATION, priority 2003, published 2007).

This data set concerns A549 cells. Conditions: data provided by National Cancer Institute.
Turning to `O=c1[nH]cc(F)c(=O)[nH]1` [5-fluorouracil], the GI50 was 1 µM.

Consider `COc1cccc2c1C(=O)c1c(O)c3c(c(O)c1C2=O)C[C@@](O)(C(=O)CO)C[C@@H]3O[C@H]1C[C@H](N)[C@H](O)[C@H](C)O1` [doxorubicin], for which the concentration for 50% growth inhibition (GI50) is 0.063 µM.

Turning to `NC(=O)NO` [hydroxyurea], the GI50 is 500 µM.

With `CC(=O)O[C@H]1C(=O)[C@@]2(C)[C@H]([C@H](OC(=O)c3ccccc3)[C@]3(O)C[C@H](OC(=O)[C@H](O)[C@@H](NC(=O)c4ccccc4)c4ccccc4)C(C)=C1C3(C)C)[C@]1(OC(C)=O)CO[C@@H]1C[C@@H]2O` [paclitaxel], the GI50 is 0.004 µM.

Broadly, the GI50 is the concentration at which growth is held to half of that of the control.
